Target: human Autotaxin protein (Homo sapiens, UniProt Q13822)
Experiment: Evaluation of the inhibitory activity against human Autotaxin protein (18:1 LysoPC substrate, choline assay kit, absorbance at 570 nm)
Type: biochemical
Conditions: at 500nM compound, 2 hours at 37 °C, read-out: Inhibition rate (%, at 500nM)
Protocol: Solutions of each synthesized compound (80 uM, 100% dimethyl sulfoxide) were sequentially diluted 5-fold with dimethyl sulfoxide to prepare 6 concentrations. Each concentration of the compound was diluted 2-fold with 1x test buffer (50 mM Tris-Cl (pH 8.0), 5 mM KCl, 1 mM CaCl2, 1 mM MgCl2, 140 mM NaCl, deionized water, 1 mg/mL BSA), and 1 uL (1.25% dimethylsulfoxide) of the diluted mixture was dispensed into each well of a 96-well clear round-bottom plate. 9 uL of 1x test buffer was added, and 20 uL of 240 nM human autotaxin protein (buffer: 50 mM Tris-HCl, pH 8.0, with 150 mM sodium chloride and 20% glycerol) was added. 10 uL of sonicated 360 uM 18:1 LysoPC (diluted with 1x assay buffer) was added. The reaction was performed for 2 hours in a shaking incubator at 37 °C, and a secondary reaction mixture (choline assay kit, KA1662) (65 uL of 1x assay buffer: 1 uL of choline oxidase: 1 uL of dye probe) was prepared. 60 uL of the secondary reaction mixture was added to the plate where the reaction was performed, and incubated for 30 minutes in a shaker. The absorbance value was measured at a wavelength of 570 nm using a SpectraMax iD3 microplate reader. The percentage inhibition activity value (% inhibition) was calculated by the formula: (1 - absorbance value test group / absorbance value control group) X 100.

## O=C(/C=C/c1cnc(NC2Cc3ccccc3C2)nc1)N1C[C@@H]2[C@H](C1)[C@H]2c1cnn[nH]1 [Example 46, (E)-1-((1R,5S,6r)-6-(1H-1,2,3-Triazol-5-yl)-3-azabicyclo[3.1.0]hexan-3-yl)-3-(2-((2,3-dihydro-1H-inden-2-yl)amino)pyrimidin-5-yl)prop-2-en-1-one]
  inhibition at 0.5 µM: 99.4%

From patent EP4692083A1, “NOVEL AZABICYCLE DERIVATIVES AND PHARMACEUTICAL COMPOSITION FOR INHIBITING AUTOTAXIN, COMPRISING SAME” (Nextgen Bioscience Co., Ltd., priority 2023, dated 2024)
